How the values were obtained:
[1] = The compound was tested against Penicillinase (TEM) and its stability towards beta-lactamase relative to cephaloridine was evaluated; type: functional
[2] = The compound was tested against penicillinase (TEM) and its stability towards beta-lactamase was evaluated
[3] = The compound was tested against penicillinase (TEM) and its stability towards beta-lactamase relative to cephaloridine was evaluated
[4] = system: Beta-lactamase (Bacteroides fragilis); assay: The compound was tested against Bacteroides fragilis FP784 its stability towards beta-lactamase relative to cephaloridine was evaluated

Vmax [1]	Vmax / Km [1]	Km [2] [µg/mL]	Vmax [3]	Vmax / Km [3]	Vmax / Km [4]	Structure (SMILES)
1	1					O=C(Cc1cccs1)N[C@@H]1C(=O)N2C(C(=O)[O-])=C(C[n+]3ccccc3)CS[C@H]12
		47.4	3.61	6.33	1.98	Cc1nnc(SC2=C(C(=O)O)N3C(=O)[C@@H](NC(=O)Cc4ccccc4)[C@H]3SC2)s1
